Source: patent US9150568B2, “Compositions and methods for modulating FXR” (NOVARTIS AG, priority 2010, dated 2015)

molecular target: T1, human Farnesoid X Receptor (FXR) ligand binding domain (GST-FXR LBD) (Homo sapiens, UniProt Q96RI1); test: Human GST-FXR LBD co-activator interaction assay (HTRF); type: biochemical; settings: not given
T1 construct: purchased Invitrogen
T1 sequence (Q96RI1 193-472 isoform Q96RI1-2): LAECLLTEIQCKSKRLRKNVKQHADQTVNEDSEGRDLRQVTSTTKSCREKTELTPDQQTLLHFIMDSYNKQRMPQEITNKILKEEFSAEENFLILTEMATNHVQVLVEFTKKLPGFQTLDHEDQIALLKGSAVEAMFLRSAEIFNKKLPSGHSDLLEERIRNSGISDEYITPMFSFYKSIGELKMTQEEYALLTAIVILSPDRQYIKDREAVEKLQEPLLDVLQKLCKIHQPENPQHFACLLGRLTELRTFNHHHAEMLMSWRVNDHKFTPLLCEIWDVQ
From the text: Human GST-FXR LBD Co-activator interaction Assay. The FXR HTRF assay is a biochemical assay measuring the interaction between FXR and a coactivator protein (SRC1). The ligand-induced interaction with a coactivator protein is a critical step in transcriptional activation by FXR. Thus, this is an assay designed to measure FXR agonist activity of compounds.
The ligand-dependent interaction between GST-FXR LBD and a peptide derived from Steroid Receptor Coactivator-1 (SRC-1) was monitored by Fluorescence Resonance Energy Transfer (FRET). […] Test compounds (in DMSO solution) and detection reagents (anti-GST-Cryptate labeled antibody and Streptavidin-XL665 conjugate; CisBio) were added in assay buffer containing 50 mM KF.
A negative control (without Streptavidin-XL665) was run with each assay and represented the background fluorescence. A reference FXR agonist, GW4064, was included in each experiment as positive control. The efficacy of each test compound was compared to that of GW4064. At each concentration, the relative activity of the test compound was expressed as Response %=(Rsample−RDMSO)/(Rpositive−RDMSO), where Rsample is the HTRF response (expressed in Delta F %) for the test compound, Rpositive is the maximal response for GW4064 at saturating concentrations, and RDMSO is the response for DMSO control. The EC50 values were calculated using GraphPad Prism (GraphPad Software) using non-linear regression curve fit (log(agonist) vs. response—variable slope (four parameters)).

Row | Compound | EC50 [nM]
1 | Cc1cc(C(=O)O)cnc1N1C2CC[C@H]1C[C@H](OCc1c(-c3ccccc3OC(F)(F)F)noc1C1CC1)C2 [Example 19-4B] | 5

same assay, conditions: GST-FXR LBD / biotin-SRC-1 peptide FRET; response relative to GW4064; read-out: FXR Co-activator interaction assay (EC50)

Row | Compound | EC50 [nM]
2 | Cc1cc(C(=O)O)cc2sc(N3C4CC[C@H]3CC(OCc3c(-c5ccccc5OC(F)(F)F)noc3C3CC3)C4)nc12 (some centres unmarked) [Example 30-29] | 0.5
3 | O=C(O)c1ccc2nc(N3C4CC[C@H]3C[C@H](OCc3c(C5CC5c5ccccc5)noc3C3CC3)C4)sc2c1 (some centres unmarked) [Example 10B, 2-(3-((5-cyclopropyl-3-(2-phenylcyclopropyl)isoxazol-4-yl)methoxy)-8-azabicyclo[3.2.1]octan-8-yl)benzo[d]thiazole-6-carboxylic acid] | 98
4 | Cn1c(C(=O)O)cc2ccc(N3C4CC[C@H]3CC(OCc3c(-c5ccccc5OC(F)(F)F)noc3C3CC3)C4)cc21 (some centres unmarked) [Example 28-4] | 2
5 | COC(=O)c1ccnc(N2C3CC[C@H]2CC(OCc2c(-c4ccccc4C(F)(F)F)noc2C2CC2)C3)n1 (some centres unmarked) [Example 21-5A] | 110
6 | COC(=O)c1ccc(N2[C@@H]3CC[C@H]2C[C@@H](OCc2c(-c4c(F)cccc4F)noc2C2CC2)C3)nc1 [Example 22-13A] | 80
7 | COC(=O)c1cccc(N2C3CC[C@H]2CC(OCc2c(-c4ccccc4OC(F)F)noc2C2CC2)C3)n1 (some centres unmarked) [Example 22-3] | 10
8 | O=C(O)c1ccc(N2C3CC[C@H]2CC(OCc2c(-c4ccccc4OC(F)(F)F)noc2C2CC2)C3)c(F)c1 (stereo in doubt) [Example 23B, 4-(3-((5-cyclopropyl-3-(2-(trifluoromethoxy)phenyl)isoxazol-4-yl)methoxy)-8-azabicyclo[3.2.1]octan-8-yl)-3-fluorobenzoic acid] | 4
9 | O=C(O)c1cnn2ccc(N3[C@@H]4CC[C@H]3C[C@@H](OCc3c(-c5ccccc5OC(F)(F)F)noc3C3CC3)C4)cc12 [Example 32-2] | 4
10 | O=C(O)c1cnc(N2C3CC[C@H]2C[C@H](OCc2c(-c4ccccc4OC(F)(F)F)noc2C2CC2)C3)c(C2CC2)c1 [Example 18-2B, 5-cyclopropyl-6-((1S,3R)-3-((5-cyclopropyl-3-(2-(trifluoromethoxy)phenyl)isoxazol-4-yl)methoxy)-8-azabicyclo[3.2.1]octan-8-yl)nicotinic acid] | 7
11 | COC(=O)c1cc(C)c2nc(N3C4CC[C@H]3CC(OCc3c(-c5ccccc5OC(F)(F)F)noc3C3CC3)C4)sc2c1 (some centres unmarked) [Example 30-28] | 12
12 | CC12CCCC1C2c1noc(C2CC2)c1COC1CC2CC[C@@H](C1)N2c1nc2c(F)cc(C(=O)O)cc2s1 (some centres unmarked) [Example 29-2] | 8
13 | O=C(O)c1cc(F)c2nc(N3C4CC[C@H]3CC(OCc3c(C5C6CCCC65)noc3C3CC3)C4)sc2c1 (some centres unmarked) [Example 29-1] | 14
14 | O=C(NCCS(=O)(=O)O)c1ccc2nc(N3C4CC[C@H]3C[C@H](OCc3c(-c5ccccc5OC(F)(F)F)noc3C3CC3)C4)sc2c1 [Example 16-1, 2-(2-(3-((5-cyclopropyl-3-(2-(trifluoromethoxy)phenyl)isoxazol-4-yl)methoxy)-8-azabicyclo[3.2.1]octan-8-yl)benzo[d]thiazole-6-carboxamido)ethanesulfonic acid] | 0.6
15 | COC(=O)c1cc(C)c2nc(N3C4CC[C@H]3CC(OCc3c(-c5ccccc5C(F)(F)F)noc3C3CC3)C4)sc2c1 (some centres unmarked) [Example 30-30] | 120
16 | Cc1cccc(F)c1-c1noc(C2CC2)c1COC1CC2CC[C@@H](C1)N2c1ccc(C(=O)O)cn1 (some centres unmarked) [Example 30-12] | 5
17 | O=C(O)c1cc(F)c2nc(N3C4CC[C@H]3C[C@H](OCc3c(C5CCCCC5)noc3C3CC3)C4)sc2c1 [Example 9-1] | 5
18 | O=C(O)c1ccc(N2C3CC[C@H]2CC(OCc2c(-c4ccccc4OC(F)(F)F)noc2C2CC2)C3)cc1 (some centres unmarked) [Example 28-6] | 1.7
19 | COC(=O)c1cc(C)c2nc(N3C4CC[C@H]3CC(OCc3c(-c5ccccc5C)noc3C3CC3)C4)sc2c1 (some centres unmarked) [Example 30-37] | 140
20 | CC(C)(O)c1ccc2nc(N3C4CC[C@H]3CC(OCc3c(-c5ccccc5OC(F)(F)F)noc3C3CC3)C4)sc2c1 (some centres unmarked) [Example 4, 2-(2-(3-((5-cyclopropyl-3-(2-(trifluoromethoxy)phenyl)isoxazol-4-yl)methoxy)-8-azabicyclo[3.2.1]octan-8-yl)benzo[d]thiazol-6-yl)propan-2-ol] | 22
21 | Cc1cccc(C)c1-c1noc(C2CC2)c1COC1CC2CC[C@@H](C1)N2c1ccc(C(=O)O)cn1 (some centres unmarked) [Example 30-15] | 9
22 | O=C(O)c1cnc2ccc(N3C4CC[C@H]3CC(OCc3c(-c5ccccc5OC(F)(F)F)noc3C3CC3)C4)cn12 (some centres unmarked) [Example 28-2] | 16
23 | COC(=O)c1cnc(N2C3CC[C@H]2CC(OCc2c(-c4ccccc4OC(F)F)noc2C2CC2)C3)cc1C(F)(F)F (some centres unmarked) [Example 22-1A] | 530
24 | COc1cc(C(=O)O)cc2sc(N3C4CC[C@H]3CC(OCc3c(-c5c(C)cccc5C)noc3C3CC3)C4)nc12 (some centres unmarked) [Example 30-14] | 1.2

Row | Compound | EC50 [nM]
25 | Cc1cc(C(=O)O)cc2sc(N3C4CC[C@H]3CC(OCc3c(-c5ccccc5F)noc3C3CC3)C4)nc12 (some centres unmarked) [Example 30-34] | 1.8
26 | COc1cc(C(=O)O)cc2sc(N3[C@@H]4CC[C@H]3C[C@@H](OCc3c(-c5cccc(F)c5)noc3C3CC3)C4)nc12 [Example 30-8] | 21
27 | O=C(O)c1nsc2cc(N3C4CC[C@H]3CC(OCc3c(-c5ccccc5OC(F)(F)F)noc3C3CC3)C4)c(F)cc12 (some centres unmarked) [Example 28-23] | 0.5
28 | COC(=O)c1cc(N2C3CC[C@H]2CC(OCc2c(-c4c(F)cccc4F)noc2C2CC2)C3)nc(Cl)n1 (some centres unmarked) [Example 22-19] | 57
29 | O=C(O)c1cc(F)c2nc(N3[C@@H]4CC[C@H]3C[C@@H](OCc3c(C5CCCC5)noc3C3CC3)C4)sc2c1 [Example 29-3] | 11
30 | O=C(O)c1cnc(N2C3CC[C@H]2CC(OCc2c(-c4ccccc4C(F)(F)F)noc2C2CC2)C3)nc1 (some centres unmarked) [Example 21-2B] | 10
31 | O=C(O)c1nsc2cc(N3[C@@H]4CC[C@H]3C[C@@H](OCc3c(-c5ccccc5C5CC5)noc3C3CC3)C4)ccc12 [Example 28-22] | 0.2
32 | O=C(O)Cc1ccc(N2C3CC[C@H]2C[C@H](OCc2c(-c4ccccc4OC(F)(F)F)noc2C2CC2)C3)nc1 [Example 19-1B] | 40
33 | O=C(O)c1cc2nc(N3C4CC[C@H]3CC(OCc3c(-c5ccccc5OC(F)(F)F)noc3C3CC3)C4)ccn2n1 (some centres unmarked) [Example 31-3] | 2
34 | COC(=O)c1cnc(N2C3CC[C@H]2CC(OCc2c(-c4c(F)cccc4F)noc2C2CC2)C3)nc1 (some centres unmarked) [Example 22-14A] | 70
35 | Cc1nc(N2[C@@H]3CC[C@H]2C[C@@H](OCc2c(-c4cccc(F)c4)noc2C2CC2)C3)ccc1C(=O)O [Example 30-50] | 700
36 | COC(=O)c1cc(C)c2nc(N3[C@@H]4CC[C@H]3C[C@@H](OCc3c(-c5c(F)cccc5F)noc3C3CC3)C4)sc2c1 [Example 30-32] | 149
37 | CC1CC1c1noc(C2CC2)c1CO[C@@H]1CC2CC[C@@H](C1)N2c1nc2c(F)cc(C(=O)O)cc2s1 (some centres unmarked) [Example 12-1] | 25
38 | COc1cc(C(=O)O)cc2sc(N3C4CC[C@H]3CC(OCc3c(-c5ccccc5OC(F)(F)F)noc3C3CC3)C4)nc12 (some centres unmarked) [Example 2-1B, 2-(3-((5-cyclopropyl-3-(2-(trifluoromethoxy)phenyl)isoxazol-4-yl)methoxy)-8-azabicyclo[3.2.1]octan-8-yl)-4-methoxybenzo[d]thiazole-6-carboxylic acid] | 0.17
39 | Cn1nc(C(=O)O)c2cc(N3C4CC[C@H]3CC(OCc3c(-c5ccccc5OC(F)(F)F)noc3C3CC3)C4)ccc21 (some centres unmarked) [Example 28-16] | 63
40 | O=C(O)c1cnc(N2C3CC[C@H]2CC(OCc2c(-c4ccccc4C(F)(F)F)noc2C2CC2)C3)cc1C(F)(F)F (some centres unmarked) [Example 21-4B] | 20
41 | Cc1cc(C(N)=O)nc(N2C3CC[C@H]2C[C@H](OCc2c(-c4ccccc4OC(F)F)noc2C2CC2)C3)n1 [Example 5-3] | 20
42 | O=C(O)c1cc2cc(N3C4CC[C@H]3CC(OCc3c(-c5ccccc5OC(F)(F)F)noc3C3CC3)C4)ccc2s1 (some centres unmarked) [Example 28-13] | 7.4
43 | Cn1c(C(=O)O)cc2cc(N3C4CC[C@H]3CC(OCc3c(-c5ccccc5OC(F)(F)F)noc3C3CC3)C4)ccc21 (some centres unmarked) [Example 28-19] | 1.5
44 | COc1cc(C(=O)O)cc2sc(N3[C@@H]4CC[C@H]3C[C@@H](OCc3c(-c5c(Cl)cccc5Cl)noc3C3CC3)C4)nc12 [Example 30-71] | 0.3
45 | Cc1cc(C(=O)O)cc2sc(N3C4CC[C@H]3CC(OCc3c(-c5ccccc5C(F)(F)F)noc3C3CC3)C4)nc12 (some centres unmarked) [Example 30-31] | 7
46 | O=C(O)c1csc(N2C3CC[C@H]2CC(OCc2c(-c4ccccc4OC(F)(F)F)noc2C2CC2)C3)n1 (some centres unmarked) [Example 30-74] | 3
47 | Cc1nc(N2[C@@H]3CC[C@H]2C[C@@H](OCc2c(-c4c(F)cccc4F)noc2C2CC2)C3)ccc1C(=O)O [Example 30-47] | 120
